This experiment deals with T1, E. coli GlpG (Escherichia coli, UniProt P09391).
T1 sequence (P09391 1-276): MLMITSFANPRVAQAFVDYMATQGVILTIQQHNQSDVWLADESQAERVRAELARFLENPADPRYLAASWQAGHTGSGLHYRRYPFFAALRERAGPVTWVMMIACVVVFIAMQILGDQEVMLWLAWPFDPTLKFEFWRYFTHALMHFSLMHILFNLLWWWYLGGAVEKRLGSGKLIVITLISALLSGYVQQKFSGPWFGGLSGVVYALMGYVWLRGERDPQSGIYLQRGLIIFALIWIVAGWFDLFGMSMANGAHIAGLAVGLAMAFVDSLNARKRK
The experiment in a line: FRET peptide cleavage assay. The format is biochemical.

For `Cc1ccc(S(=O)(=O)N[C@@H](Cc2ccccc2)C(=O)CCl)cc1` [tosyl phenylalanyl chloromethylketone], the IC50 is 296 µM.

The values are drawn from article PMC12847965 (Nature Communications, 2025).
